Test results reported in patent publication US7560458B2, “Triazolopyrimidine derivatives as glycogen synthase kinase 3 inhibitors” (Janssen Pharmaceutica, N.V., priority 2003, dated 2009).

Experiments:
[1] = target: GSK3β (Homo sapiens, UniProt P49841); experiment: GSK3beta assay (SPA, biotinylated phosphorylated CREB peptide, ATP-P33); type: biochemical; settings: −log IC50 (M); given as ranges (>8; 7-8; <7); read-out: pIC50 (GSK3beta) (converted)
In short: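 Radiometric SPA at room temperature, pH 7.4 Tris/MgCl2/DTT/BSA/glycerol, with 5.7 ng/μl GSK3β, 5 μM biotinylated phospho-CREB peptide, 1 μM ATP plus 33P-ATP for 1 h. Stopped with streptavidin SPA beads, counted after overnight settling; % inhibition versus no-compound control, IC50 from dose-response curve.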

[2] = target: GSK3alpha (Homo sapiens, UniProt P49840); experiment: GSK3alpha assay (same as the GSK3beta assay, GSK3alpha 0.25 ng/μl); type: biochemical; settings: −log IC50 (M); given as ranges (>8; 7-8; <7); read-out: pIC50 (GSK3alpha) (converted)
In short: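 GSK3α at 0.25 ng/μl phosphorylated 5 μM biotinylated phospho-CREB peptide with 1 μM ATP and 33P-ATP for 1 h at room temperature, in 25 mM Tris pH 7.4 with 10 mM MgCl2 and 1 mM DTT. Phosphorylated peptide was captured on streptavidin SPA beads and counted. IC50 was taken from dose-response curves.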

Sequence of GSK3β (P49841 whole entry, species assumed): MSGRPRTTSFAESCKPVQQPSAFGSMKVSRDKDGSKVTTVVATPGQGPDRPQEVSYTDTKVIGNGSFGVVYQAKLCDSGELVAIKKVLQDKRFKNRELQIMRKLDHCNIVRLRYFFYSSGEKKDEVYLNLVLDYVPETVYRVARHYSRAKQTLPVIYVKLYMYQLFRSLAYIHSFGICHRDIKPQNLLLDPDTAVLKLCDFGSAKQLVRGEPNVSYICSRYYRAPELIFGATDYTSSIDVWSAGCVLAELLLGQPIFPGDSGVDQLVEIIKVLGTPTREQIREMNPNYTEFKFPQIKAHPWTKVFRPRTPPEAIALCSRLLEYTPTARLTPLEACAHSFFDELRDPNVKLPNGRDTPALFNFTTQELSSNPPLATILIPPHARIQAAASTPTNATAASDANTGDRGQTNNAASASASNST
Sequence of GSK3alpha (P49840 whole entry, species assumed): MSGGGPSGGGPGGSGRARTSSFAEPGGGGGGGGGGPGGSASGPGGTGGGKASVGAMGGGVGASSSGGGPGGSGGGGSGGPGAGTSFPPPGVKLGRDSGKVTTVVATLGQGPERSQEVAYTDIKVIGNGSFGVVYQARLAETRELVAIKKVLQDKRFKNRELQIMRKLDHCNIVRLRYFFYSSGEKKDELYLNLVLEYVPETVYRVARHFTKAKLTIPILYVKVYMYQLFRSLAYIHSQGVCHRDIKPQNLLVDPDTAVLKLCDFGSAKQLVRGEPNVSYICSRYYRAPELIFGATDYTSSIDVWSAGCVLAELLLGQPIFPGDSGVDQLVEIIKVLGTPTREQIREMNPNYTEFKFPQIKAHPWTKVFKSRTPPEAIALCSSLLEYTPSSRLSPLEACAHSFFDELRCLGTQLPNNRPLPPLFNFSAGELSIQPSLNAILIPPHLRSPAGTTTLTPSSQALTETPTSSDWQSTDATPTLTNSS

Compound | IC50 [1] [M] | IC50 [2] [M] | melting point [°C]
COCc1cccc(-n2nnc3cnc(Nc4cccc([S+](C)[O-])c4)nc32)c1 (stereo not drawn) [Compound 148] | < 1e-08 | < 1e-08 | 142 to 146
COCCOCc1cccc(-n2nnc3cnc(Nc4ccc(F)cc4)nc32)c1 [Compound 287] | < 1e-08 | < 1e-08 | 148
COc1cc(Nc2ncc3nnn(-c4cccc(F)c4)c3n2)ccc1C(=O)O [Compound 298] | < 1e-08 | < 1e-08 | 232

Now from value to compound:

IC50 [1] [M] | IC50 [2] [M] | melting point [°C] | Compound
< 1e-08 | < 1e-08 | 168 to 172 | C[S+]([O-])c1cccc(Nc2ncc3nnn(-c4cccc(F)c4)c3n2)c1 (stereo not drawn) [Compound 152]
1e-08 to 1e-07 | 1e-08 to 1e-07 | 137 | CN(C)CCCOc1ccc(Nc2ncc3nnn(-c4cccc(F)c4)c3n2)cc1 [Compound 297]
